Assay results published in ChEMBL document CHEMBL4765407, “Design, synthesis and high antitumor potential of new unsymmetrical bisacridine derivatives towards human solid tumors, specifically pancreatic cancers and their unique ability to stabilize DNA G-quadruplexes” (Eur J Med Chem, 2020).
pIC50: −log10 of the molar value.

Tests used:
NCI-H460 = assay: Cytotoxicity against human NCI-H460 cells assessed as reduction in cell viability measured after 72 hrs by SRB assay; assay type: functional, cell-based; details: NCI-H460, 72 h
DU-145 [1] = assay: Cytotoxicity against human DU-145 cells assessed as reduction in cell viability measured after 72 hrs by SRB assay; assay type: functional, cell-based; details: DU-145, 72 h
LNCaP = assay: Cytotoxicity against human LNCaP cells assessed as reduction in cell viability measured after 72 hrs by SRB assay; assay type: functional, cell-based
HT-29 = assay: Cytotoxicity against human HT-29 cells assessed as reduction in cell viability measured after 72 hrs by SRB assay; assay type: functional, cell-based; details: HT-29, 72 h
HCT-116 [2] = assay: Cytotoxicity against human HCT-116 cells assessed as reduction in cell viability measured after 72 hrs by SRB assay; assay type: functional, cell-based; details: HCT-116, 72 h
W256 [3] = assay: Antitumour activity against Walker 256 adenocarcinoma cells implanted in Wistar rat assessed as increase in animal survival rate by measuring T/C ratio at 5 mg/kg, ip qd for 3 days administered on day 3,4,5 after tumor cell transplantation; assay type: functional; details: time 3 day
PC-3 = assay: Cytotoxicity against human PC-3 cells assessed as reduction in cell viability measured after 72 hrs by SRB assay; assay type: functional, cell-based; details: PC-3, 72 h
ASPC1 = assay: Cytotoxicity against human ASPC1 cells assessed as reduction in cell viability measured after 72 hrs by SRB assay; assay type: functional, cell-based; details: ASPC1, 72 h
UMUC3 [4] = assay: Cytotoxicity against human UMUC3 cells assessed as reduction in cell viability measured after 72 hrs by SRB assay; assay type: functional, cell-based; details: UMUC3, 72 h
DU-145 [5] = assay: Antitumour activity against human DU-145 cells xenografted in Crl:Nu-Foxnl nu mouse assessed as inhibition of tumour growth at total effective dose of 24 mg/kg, ip measured on day 35; assay type: functional; details: DU-145, ip, 840 h, time 35 day, read-out: TGI
MCF7 = assay: Cytotoxicity against human MCF7 cells assessed as reduction in cell viability measured after 72 hrs by SRB assay; assay type: functional, cell-based; details: MCF7, 72 h
Quadruplex DNA [6] = assay: Stabilization of 5'-FAM/3'-TAMRA labeled K-Ras G4 quadruplex DNA (unknown origin) assessed as change in melting temperature at 10 microM measured after 15 mins by FRET assay; assay type: nucleic-acid assay
W256 [7] = assay: Antitumour activity against Walker 256 adenocarcinoma cells implanted in Wistar rat assessed as increase in animal survival rate by measuring T/C ratio at 1 mg/kg, ip qd for 3 days administered on day 3,4,5 after tumor cell transplantation; assay type: functional; details: time 3 day
MIA PaCa-2 [8] = assay: Cytotoxicity against human MIA PaCa-2 cells assessed as reduction in cell viability measured after 72 hrs by SRB assay; assay type: functional, cell-based; details: MIA PaCa-2, 72 h
Quadruplex DNA [9] = assay: Stabilization of 5'-FAM/3'-TAMRA labeled telomeric G4 quadruplex DNA F21T (unknown origin) assessed as change in melting temperature at 10 microM measured after 15 mins by FRET assay; assay type: nucleic-acid assay
MDA-MB-231 = assay: Cytotoxicity against human MDA-MB-231 cells assessed as reduction in cell viability measured after 72 hrs by SRB assay; assay type: functional, cell-based; details: MDA-MB-231, 72 h
HCT-116 [10] = assay: Antitumour activity against human HCT-116 cells xenografted in Crl:Nu-Foxnl nu mouse assessed as inhibition of tumour growth at total effective dose of 5 mg/kg, ip measured on day 16; assay type: functional; details: HCT-116, ip, 384 h, time 16 day, read-out: TGI
DU-145 [11] = assay: Antitumour activity against human DU-145 cells xenografted in Crl:Nu-Foxnl nu mouse assessed as inhibition of tumour growth at total effective dose of 6 mg/kg, ip measured on day 35; assay type: functional; details: DU-145, ip, 840 h, time 35 day, read-out: TGI
MIA PaCa-2 [12] = assay: Antitumour activity against human MIA PaCa-2 cells xenografted in Crl:Nu-Foxnl nu mouse assessed as inhibition of tumour growth at total effective dose of 32 mg/kg, iv measured on day 26; assay type: functional; details: MIA PaCa-2, iv, 624 h, time 26 day, read-out: TGI
PANC-1 [13] = assay: Cytotoxicity against human PANC-1 cells assessed as reduction in cell viability measured after 72 hrs by SRB assay; assay type: functional, cell-based; details: PANC-1, 72 h
Quadruplex DNA [14] = assay: Stabilization of 5'-FAM/3'-TAMRA labeled c-Myc promoter G4 quadruplex DNA FPu18 (unknown origin) assessed as change in melting temperature at 10 microM measured after 15 mins by FRET assay; assay type: nucleic-acid assay
W256 [15] = assay: Antitumour activity against Walker 256 adenocarcinoma cells implanted in Wistar rat assessed as increase in animal survival rate by measuring T/C ratio at 1.25 mg/kg, ip qd for 3 days administered on day 3,4,5 after tumor cell transplantation; assay type: functional; details: time 3 day
W256 [16] = assay: Antitumour activity against Walker 256 adenocarcinoma cells implanted in Wistar rat assessed as increase in animal survival rate by measuring T/C ratio at 4 mg/kg, ip qd for 3 days administered on day 3,4,5 after tumor cell transplantation; assay type: functional; details: time 3 day
PANC-1 [17] = assay: Antitumour activity against human PANC-1 cells xenografted in Crl:Nu-Foxnl nu mouse assessed as inhibition of tumour growth at total effective dose of 16 mg/kg, iv measured on day 37; assay type: functional; details: PANC-1, iv, 888 h, time 37 day, read-out: TGI
DU-145 [18] = assay: Antitumour activity against human DU-145 cells xenografted in Crl:Nu-Foxnl nu mouse assessed as inhibition of tumour growth at total effective dose of 40 mg/kg, ip measured on day 35; assay type: functional; details: DU-145, ip, 840 h, time 35 day, read-out: TGI
UMUC3 [19] = assay: Antitumour activity against human UMUC3 cells xenografted in Crl:Nu-Foxnl nu mouse assessed as inhibition of tumour growth at total effective dose of 14 mg/kg, iv measured on day 23; assay type: functional; details: 552 h, time 23 day, read-out: TGI

`Cc1ccc([N+](=O)[O-])c2c(NCCCN(C)CCCNc3ccc(C)c4[nH]c5ccccc5c(=O)c34)c3ccccc3nc12` gave a pIC50 (NCI-H460) of 7.15, a pIC50 (DU-145 [1]) of 6.72 and a pIC50 (LNCaP) of 6.71. The pIC50 (HT-29) was 6.91, the pIC50 (HCT-116 [2]) was 6.92 and the T/C (W256 [3]) was 1300%.

In the case of `CCc1c2c(nc3ccc(OC(=O)N4CCC(N5CCCCC5)CC4)cc13)-c1cc3c(c(=O)n1C2)COC(=O)[C@]3(O)CC` [IRINOTECAN], the pIC50 (HT-29) was 5.02 and the pIC50 (HCT-116 [2]) was 5.01.

Compound `CN(CCCNc1c2ccccc2nc2cccc([N+](=O)[O-])c12)CCCNc1ccc([N+](=O)[O-])c2[nH]c3ccc(O)cc3c(=O)c12` has a pIC50 (PC-3) of 7.28, a pIC50 (ASPC1) of 6.87 and a pIC50 (UMUC3 [4]) of 7.85. For the same compound, the inhibition in vivo at 24 mg/kg (DU-145 [5]) was 52%, the pIC50 (MCF7) was 7.13 and the pIC50 (NCI-H460) was 7.85. For the same compound, the ΔTm (Quadruplex DNA [6]) was 29.7 °C, the T/C (W256 [7]) was 350% and the pIC50 (MIA PaCa-2 [8]) was 7.62. It also gave a pIC50 (DU-145 [1]) of 7.37, a ΔTm (Quadruplex DNA [9]) of 34 °C and a pIC50 (LNCaP) of 7.28. It also gave a pIC50 (MDA-MB-231) of 7.70, an inhibition in vivo at 5 mg/kg (HCT-116 [10]) of 32% and an inhibition in vivo at 6 mg/kg (DU-145 [11]) of 60%. For the same compound, the pIC50 (HT-29) was 7.66, the pIC50 (HCT-116 [2]) was 7.82 and the inhibition in vivo at 32 mg/kg (MIA PaCa-2 [12]) was 30%. For the same compound, the pIC50 (PANC-1 [13]) was 7.49 and the ΔTm (Quadruplex DNA [14]) was 26.3 °C.

`Cc1ccc(NCCCNCCCNc2c3ccccc3nc3cccc([N+](=O)[O-])c23)c2c(=O)c3ccccc3[nH]c12` was tested, and the pIC50 (MCF7) was 6.64, the pIC50 (MIA PaCa-2 [8]) was 6.55 and the pIC50 (DU-145 [1]) was 6.74. It also gave a T/C (W256 [15]) of 300% and a pIC50 (PANC-1 [13]) of 6.42.

Work on `Cc1ccc(NCCNCCNc2c3ccccc3nc3cccc([N+](=O)[O-])c23)c2c(=O)c3ccccc3[nH]c12` yielded a T/C (W256 [16]) of 350%, a ΔTm (Quadruplex DNA [6]) of 28.1 °C and a pIC50 (DU-145 [1]) of 6.61. For the same compound, the inhibition in vivo at 16 mg/kg (PANC-1 [17]) was 75%, the inhibition in vivo at 40 mg/kg (DU-145 [18]) was 61% and the ΔTm (Quadruplex DNA [9]) was 37.7 °C. For the same compound, the pIC50 (LNCaP) was 6.60, the pIC50 (MDA-MB-231) was 6.86 and the pIC50 (HT-29) was 6.86. The pIC50 (PANC-1 [13]) was 6.67, the inhibition in vivo at 14 mg/kg (UMUC3 [19]) was 46% and the ΔTm (Quadruplex DNA [14]) was 28.5 °C.

Work on `Nc1ccn([C@@H]2O[C@H](CO)[C@@H](O)C2(F)F)c(=O)n1` [GEMCITABINE] yielded a pIC50 (PANC-1 [13]) of 7.66.

`Cc1ccc([N+](=O)[O-])c2c(NCCCNCCNCCCNc3ccc([N+](=O)[O-])c4[nH]c5ccccc5c(=O)c34)c3ccccc3nc12` was tested, and the pIC50 (MIA PaCa-2 [8]) was 6.96, the pIC50 (DU-145 [1]) was 7.06 and the T/C (W256 [3]) was 350%. It also gave a pIC50 (PANC-1 [13]) of 6.85.

Work on `O=c1c2ccccc2[nH]c2c([N+](=O)[O-])ccc(NCCCNCCNCCCNc3c4ccccc4nc4cccc([N+](=O)[O-])c34)c12` yielded a pIC50 (MIA PaCa-2 [8]) of 7.34, a pIC50 (DU-145 [1]) of 7.26 and a T/C (W256 [15]) of 250%. For the same compound, the pIC50 (PANC-1 [13]) was 7.22.
